Measured values reported in US8722704B2, “Modulators of ATP-binding cassette-transporters” (Vertex Pharmaceuticals Incorporated, priority 2007, dated 2014).

Biological target: T1, ΔF508-CFTR (Homo sapiens, UniProt P13569, DEL508-508)
T1 construct: expressed in transfected cells
Assay: Assays for detecting and measuring ΔF508-CFTR correction properties (membrane potential optical assay; Table 3 does not say which assay)
Type: cell-based
Settings: IC50/EC50 bins; NIH3T3 mouse fibroblasts stably expressing ΔF508-CFTR; read-out: Binned EC50
Description: The optical membrane potential assay utilized voltage-sensitive FRET sensors described by Gonzalez and Tsien (See Gonzalez, J. E. and R. Y. Tsien (1995) “Voltage sensing by fluorescence resonance energy transfer in single cells” Biophys J 69(4): 1272-80, and Gonzalez, J. E. and R. Y. Tsien (1997) “Improved indicators of cell membrane potential that use fluorescence resonance energy transfer” Chem Biol 4(4): 269-77) in combination with instrumentation for measuring fluorescence changes such as the Voltage/Ion Probe Reader (VIPR) (See Gonzalez, J. E., K. Oades, et al. (1999) “Cell-based assays and instrumentation for screening ion-channel targets” Drug Discov Today 4(9): 431-439).
These voltage sensitive assays are based on the change in fluorescence resonant energy transfer (FRET) between the membrane-soluble, voltage-sensitive dye, DiSBAC2(3), and a fluorescent phospholipid, CC2-DMPE, which is attached to the outer leaflet of the plasma membrane and acts as a FRET donor. Changes in membrane potential (Vm) cause the negatively charged DiSBAC2(3) to redistribute across the plasma membrane and the amount of energy transfer from CC2-DMPE changes accordingly. The changes in fluorescence emission were monitored using VIPR™ II, which is an integrated liquid handler and fluorescent detector designed to conduct cell-based screens in 96- or 384-well microtiter plates.
To identify small molecules that correct the trafficking defect associated with ΔF508-CFTR; a single-addition HTS assay format was developed. The cells were incubated in serum-free medium for 16 hrs at 37° C. in the presence or absence (negative control) of test compound. As a positive control, cells plated in 384-well plates were incubated for 16 hrs at 27° C. to “temperature-correct” ΔF508-CFTR. The cells were subsequently rinsed 3× with Krebs Ringers solution and loaded with the voltage-sensitive dyes. To activate ΔF508-CFTR, 10 μM forskolin and the CFTR potentiator, genistein (20 μM), were added along with Cl^−-free medium to each well. The addition of Cl^−-free medium promoted Cl^− efflux in response to ΔF508-CFTR activation and the resulting membrane depolarization was optically monitored using the FRET-based voltage-sensor dyes. […]
3. Solutions • Bath Solution #1: (in mM) NaCl 160, KCl 4.5, CaCl2 2, MgCl2 1, HEPES 10, pH 7.4 with NaOH. • Chloride-free bath solution: Chloride salts in Bath Solution #1 are substituted with gluconate salts. • CC2-DMPE: Prepared as a 10 mM stock solution in DMSO and stored at −20° C. • DiSBAC2(3): Prepared as a 10 mM stock in DMSO and stored at −20° C.
NIH3T3 mouse fibroblasts stably expressing ΔF508-CFTR are used for optical measurements of membrane potential. The cells are maintained at 37° C. in 5% CO2 and 90% humidity in Dulbecco's modified Eagle's medium supplemented with 2 mM glutamine, 10% fetal bovine serum, 1×NEAA, β-ME, 1×pen/strep, and 25 mM HEPES in 175 cm^2 culture flasks. For all optical assays, the cells were seeded at 30,000/well in 384-well matrigel-coated plates and cultured for 2 hrs at 37° C. before culturing at 27° C. for 24 hrs for the potentiator assay. For the correction assays, the cells are cultured at 27° C. or 37° C. with and without compounds for 16-24 hours.

T1 sequence (P13569 with tags, fused parts or gaps DEL508-508): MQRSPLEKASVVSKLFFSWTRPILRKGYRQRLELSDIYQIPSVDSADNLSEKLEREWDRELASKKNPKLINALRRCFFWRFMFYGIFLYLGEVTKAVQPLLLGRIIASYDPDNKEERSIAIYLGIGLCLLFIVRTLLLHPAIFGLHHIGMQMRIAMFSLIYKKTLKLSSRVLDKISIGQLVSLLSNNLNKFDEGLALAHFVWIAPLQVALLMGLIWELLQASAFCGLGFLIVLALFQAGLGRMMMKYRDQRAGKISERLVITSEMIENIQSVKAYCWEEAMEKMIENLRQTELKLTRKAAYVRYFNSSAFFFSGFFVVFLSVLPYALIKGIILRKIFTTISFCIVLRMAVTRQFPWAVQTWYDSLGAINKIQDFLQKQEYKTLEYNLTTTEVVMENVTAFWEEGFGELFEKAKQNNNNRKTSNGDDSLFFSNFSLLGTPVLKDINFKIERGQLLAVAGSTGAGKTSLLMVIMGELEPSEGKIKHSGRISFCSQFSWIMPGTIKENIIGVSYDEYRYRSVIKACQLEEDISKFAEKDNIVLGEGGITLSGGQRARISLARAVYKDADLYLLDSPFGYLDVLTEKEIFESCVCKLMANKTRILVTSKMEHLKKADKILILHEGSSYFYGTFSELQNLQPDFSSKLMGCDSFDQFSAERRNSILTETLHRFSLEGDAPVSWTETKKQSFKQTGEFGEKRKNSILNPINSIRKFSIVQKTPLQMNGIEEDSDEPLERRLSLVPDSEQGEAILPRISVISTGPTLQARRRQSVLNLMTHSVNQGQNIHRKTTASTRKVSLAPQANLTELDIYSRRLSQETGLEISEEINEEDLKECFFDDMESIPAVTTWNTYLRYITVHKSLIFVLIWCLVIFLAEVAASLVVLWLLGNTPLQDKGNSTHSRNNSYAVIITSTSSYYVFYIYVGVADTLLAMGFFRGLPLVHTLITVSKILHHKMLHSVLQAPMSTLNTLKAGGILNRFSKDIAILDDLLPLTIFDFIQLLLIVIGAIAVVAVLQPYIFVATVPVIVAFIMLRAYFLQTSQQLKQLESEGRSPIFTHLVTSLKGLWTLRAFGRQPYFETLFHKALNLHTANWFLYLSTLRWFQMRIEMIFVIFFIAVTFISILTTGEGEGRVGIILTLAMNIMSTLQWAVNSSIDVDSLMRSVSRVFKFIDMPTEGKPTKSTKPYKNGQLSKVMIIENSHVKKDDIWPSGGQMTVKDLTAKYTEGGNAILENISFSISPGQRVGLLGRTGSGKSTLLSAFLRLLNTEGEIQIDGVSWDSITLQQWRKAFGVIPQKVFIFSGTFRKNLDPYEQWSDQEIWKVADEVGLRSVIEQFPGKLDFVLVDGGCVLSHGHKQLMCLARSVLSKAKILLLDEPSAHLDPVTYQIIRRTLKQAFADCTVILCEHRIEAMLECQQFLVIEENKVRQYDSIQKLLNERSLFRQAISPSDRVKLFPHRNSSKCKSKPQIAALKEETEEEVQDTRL

C[N+](C)(C)CCOC(=O)c1cccc(-c2nc(NC(=O)C3(c4ccc5c(c4)OC(F)(F)O5)CC3)cc3ccccc23)c1 [Compound 28, 2-(3-(3-(1-(2,2-Difluorobenzo[d][1,3]dioxol-5-yl)cyclopropanecarboxamido)isoquinolin-1-yl)benzoyloxy)-N,N,N-trimethylethanaminium chloride]
EC50: ≤ 2000 nM
